According to US20100093650A1, “Pharmaceutical Anit-Infective Composition for Inhalation” (LABORATORIES SMB S.A., priority 2006, published 2010):
Blank lines part the entries; values can stand above or below the compound they belong to.

Columns and labels:
[1] = system: planktonic Pseudomonas aeruginosa; experiment: MIC on planktonic bacteria (NCCLS dilution method); type: cell-based
Method: (§1) PY O1: is a cystic Fibrosis clinical mucoid strain of Pseudomonas aeruginosa received from the Erasme Hospital, Brussels.
The determination of the minimal inhibitory concentration (MIC) is performed according to the standard of NCCLS (NCCLS, Methods for dilution Antimicrobial Susceptibility Tests for bacteria that grow aerobically; approved standards, sixth edition, M7-A6, vol. 23 no.2, January 2003.

[2] = system: 12 day biofilm of Pseudomonas aeruginosa; experiment: Bacterial count (CFU/ml) of 12-day biofilm after 24 hours with the products; type: cell-based; conditions: for bacterial count in biofilm (CFU/ml × 10^7): 24 hours; for decrease of the number of CFU/ml of the 12-day biofilm versus the positive control: concentrations of Table 1 (tobramycin 4 μg/ml; clarithromycin 100, 200, 500 μg/ml; combinations)
Source text: (§2) Biofilms of Pseudomonas aeruginosa—strain PY O1 were formed according to the methods described by Ceri et al, the calgary biofilm device: new technology for rapid determination of antibiotic susceptibilities of bacterial biofilms, Journal of clinical microbiology, pp. 1771-1776, 1999 and Abdi-Ali et al, bactericidal activity of various antibiotics against biofilm-producing Pseudomonas aeruginosa, International Journal of Antimicrobial Agents 27, 196-200, 2006.
as §1
After having shown that the number of Pseudomonas aeruginosa within the biofilms was stable after 12 days, the products listed in Table 1 were added to the media for the duration of 24 hours. Thereafter the biofilm was rinsed three times with a 0.01 M phosphate buffer adjusted at pH 7.5 in order to remove all cells not bound to the biofilm. The microplate was then placed on ultrasonic bath at 35° C. for 5 minutes to allow the bacteria present in the biofilm to separate from such biofilm. A bacterial count was then performed (number of coloning forming unit CFU/ml). Each experience was done twice and the CFU counting was also repeated twice/experience.

[3] = In vitro lung deposition, Multistage Liquid Impinger (MLI); type: physicochemical; conditions: for lung concentration per capsule: estimated from lung deposition with about 100 ml epithelial liquid in the lung, composition of example 6
Source text: The amount of macrolide agent inhaled shall be high enough to affect, in some way, the biofilm. It has to be noted that as the effect of macrolide derivatives on the biofilm is mediated through a non-antibacterial mechanism. […] Nevertheless, it is a another object of the present invention to provide a composition containing high concentrations (or amounts) of each of the aminoglycoside derivative and of the macrolide derivative i.e. at least more than 10%, preferably more than 15%, and more preferably more than 20% of the dry powder composition. It is indeed particularly interesting to achieve high lung doses of those therapeutic agents with the minimum amounts of inhalations because it makes the administration easier and more importantly increase the patient's compliance. It also decreases the nominal dose of each active ingredient and thus the adverse effects linked to these actives. In the present invention, the dry powder inhaler also provides a high Fine Particle Dose (FPD) and Fine Particle […] (FPF) when tested in vitro on a Multistage Liquid Impinger (MLI, Eur. Pharm, 5th Edition, chapter 2.9.18). The FPD and FPF are the parameters that predict in vivo lung deposition.
The in vitro lung deposition test was performed using equipment and conditions as described in the European Pharmacopoeia (5th edition, chapter 2.9.18—apparatus C). This equipment consists of a Multistage Liquid Impinger (MLI) and was operated with an air flow of 100 L/min during a period of time of 2.4 seconds to simulate inhalation capabilities of patients. The quantification of the deposition of each drug on each stage of the MLI was performed by HPLC equipped with a a Corona detector.

[4] = Particle size by laser diffraction; type: physicochemical; conditions: micronized, measured by laser diffraction
Source text: A dry powder composition for inhalation of tobramycin and clarithromycin was formulated using micronized tobramycin supplied by Teva Plantex (Israel). Clarithromycin was supplied by Teva Plantex (Israel) in a non-micronized form. Clarithromycin was then micronized using the micronizer MC-one® (JetpHarma, Switerland). […] The micronisation parameters were a pressure of 10 bars in the Venturi, a pressure of 8 bars in the ring and a feeding rate of 5 g/minute. The mean particle size of the micronized clarithromycin obtained (measured by laser diffraction) was 1.6 μm.

[5] = system: 12 day old Pseudomonas aeruginosa biofilm; experiment: MIC on 12 day old biofilm; type: cell-based
Source text: as §2, §1
In a second experiment using the same modus operandi as above, we measured the MIC of Tobramycin on a 12 day old Pseudomonas aeruginosa biofilm. This situation is much closer to the situation observed in vivo in chronic respiratory diseases like Cystic Fibrosis.

[6] = MLI1, example 6 capsule 10 mg/10 mg, MLI 100 L/min
[7] = MLI2, example 6 capsule 10 mg/10 mg, MLI 100 L/min
[8] = MLI3, example 6 capsule 10 mg/10 mg, MLI 100 L/min
[9] = Mean (n = 3), example 6 capsule 10 mg/10 mg, MLI 100 L/min
[10] = composition of example 6, MLI 100 L/min

- sensitivity of the bacterium (MIC could not be determined) [1]: not sensitive
- Device deposition [3, 6]: 1.155 mg
- FPD [3, 6]: 3.14 mg
- FPF [3, 6]: 31.4%
- Filter deposition [3, 6]: 0.478 mg
- Stage 1 deposition [3, 6]: 1.338 mg
- Stage 2 deposition [3, 6]: 0.664 mg
- Stage 3 deposition [3, 6]: 1.715 mg
- Stage 4 deposition [3, 6]: 1.162 mg
- Throat deposition [3, 6]: 1.025 mg
- Device deposition [3, 7]: 1.048 mg
- FPD [3, 7]: 3.76 mg
- FPF [3, 7]: 37.6%
- Filter deposition [3, 7]: 0.598 mg
- Stage 1 deposition [3, 7]: 1.566 mg
- Stage 2 deposition [3, 7]: 0.845 mg
- Stage 3 deposition [3, 7]: 1.891 mg
- Stage 4 deposition [3, 7]: 1.482 mg
- Throat deposition [3, 7]: 1.134 mg
- Device deposition [3, 8]: 1.433 mg
- FPD [3, 8]: 3.98 mg
- FPF [3, 8]: 39.9%
- Filter deposition [3, 8]: 0.574 mg
- Stage 1 deposition [3, 8]: 1.352 mg
- Stage 2 deposition [3, 8]: 0.680 mg
- Stage 3 deposition [3, 8]: 2.078 mg
- Stage 4 deposition [3, 8]: 1.533 mg
- Throat deposition [3, 8]: 1.223 mg
- Device deposition [3, 9]: 1.212 mg
- FPD [3, 9]: 3.63 mg
- FPF [3, 9]: 36.3%
- Filter deposition [3, 9]: 0.550 mg
- Stage 1 deposition [3, 9]: 1.419 mg
- Stage 2 deposition [3, 9]: 0.729 mg
- Stage 3 deposition [3, 9]: 1.895 mg
- Stage 4 deposition [3, 9]: 1.392 mg
- Throat deposition [3, 9]: 1.127 mg
- FPD/capsule [3, 10]: 3.63 mg
- FPF [3, 10]: 36.3%
- lung concentration per capsule [3]: 36.3 µg/mL
- mean particle size [4]: 1.6 μm
SMILES: CC[C@H]1OC(=O)[C@H](C)[C@@H](O[C@H]2C[C@@](C)(OC)[C@@H](O)[C@H](C)O2)[C@H](C)[C@@H](O[C@@H]2O[C@H](C)C[C@H](N(C)C)[C@H]2O)[C@](C)(OC)C[C@@H](C)C(=O)[C@H](C)[C@@H](O)[C@]1(C)O [Clarithromycin]
- bacterial count in biofilm (CFU/ml × 10^7) ([2]; C 100 μg/ml, 12 day biofilm): 14 CFU × 10^7
- bacterial count in biofilm (CFU/ml × 10^7) ([2]; C 200 μg/ml, 12 day biofilm): 10 CFU × 10^7
- bacterial count in biofilm (CFU/ml × 10^7) ([2]; C 500 μg/ml, 12 day biofilm): 7 CFU × 10^7
- decrease of the number of CFU/ml of the 12-day biofilm versus the positive control [2]: neither tobramycin 4 μg/ml nor clarithromycin at 100, 200 and 500 μg/ml alone are able to decrease the number of CFU/m1

- activity (MIC) on 12 day old biofilm [5]: no longer active
- Device deposition [3, 6]: 1.035 mg
- FPD [3, 6]: 3.60 mg
- FPF [3, 6]: 36%
- Filter deposition [3, 6]: 0.664 mg
- Stage 1 deposition [3, 6]: 1.760 mg
- Stage 2 deposition [3, 6]: 0.614 mg
- Stage 3 deposition [3, 6]: 1.512 mg
- Stage 4 deposition [3, 6]: 1.598 mg
- Throat deposition [3, 6]: 0.929 mg
- Device deposition [3, 7]: 0.938 mg
- FPD [3, 7]: 4.45 mg
- FPF [3, 7]: 44.5%
- Filter deposition [3, 7]: 0.838 mg
- Stage 1 deposition [3, 7]: 1.837 mg
- Stage 2 deposition [3, 7]: 0.726 mg
- Stage 3 deposition [3, 7]: 1.818 mg
- Stage 4 deposition [3, 7]: 1.965 mg
- Throat deposition [3, 7]: 0.859 mg
- Device deposition [3, 8]: 1.272 mg
- FPD [3, 8]: 4.72 mg
- FPF [3, 8]: 47.2%
- Filter deposition [3, 8]: 0.778 mg
- Stage 1 deposition [3, 8]: 1.546 mg
- Stage 2 deposition [3, 8]: 0.606 mg
- Stage 3 deposition [3, 8]: 1.895 mg
- Stage 4 deposition [3, 8]: 2.202 mg
- Throat deposition [3, 8]: 0.771 mg
- Device deposition [3, 9]: 1.082 mg
- FPD [3, 9]: 4.26 mg
- FPF [3, 9]: 42.5%
- Filter deposition [3, 9]: 0.760 mg
- Stage 1 deposition [3, 9]: 1.714 mg
- Stage 2 deposition [3, 9]: 0.648 mg
- Stage 3 deposition [3, 9]: 1.742 mg
- Stage 4 deposition [3, 9]: 1.922 mg
- Throat deposition [3, 9]: 0.853 mg
- FPD/capsule [3, 10]: 4.26 mg
- FPF [3, 10]: 42.5%
- lung concentration per capsule [3]: 42.6 µg/mL
SMILES: NC[C@H]1O[C@H](O[C@H]2[C@H](O)[C@@H](O[C@H]3O[C@H](CO)[C@@H](O)[C@H](N)[C@H]3O)[C@H](N)C[C@@H]2N)[C@H](N)C[C@@H]1O [Tobramycin]
- bacterial count in biofilm (CFU/ml × 10^7) ([2]; T 4 μg/ml, 12 day biofilm): 25 CFU × 10^7
- decrease of the number of CFU/ml of the 12-day biofilm versus the positive control [2]: neither tobramycin 4 μg/ml nor clarithromycin at 100, 200 and 500 μg/ml alone are able to decrease the number of CFU/m1
- number of CFU/ml ([2]; tobramycin alone at 4 μg/ml, 12 day biofilm): around 2.5×10^8 CFU/ml
